Assay [1] has as its target T1, BAF3-EML4-ALK stable cell line (Homo sapiens, UniProt Q9UM73).
T1 construct: fused on or other part: Q9HC35 (Echinoderm microtubule-associated protein-like 4)
Put plainly: BAF3-EML4-ALK cell assay (MTT cell proliferation). As to conditions: 72 hours, read-out: BAF3-EML4-ALK Cell (IC50 grading). Format: cell-based. The protocol:
BAF3-EML4-ALK Cell Assay:
A method of establishing BAF3-EML4-ALK stable cell line: Transfer 5×10^6 BAF3 cells to a new tube, pellet the cells, and remove PBS by aspiration.; Resuspend the cells in 1 ml electroporation buffer, this provides 5×10^6 of cells; Transfer 200 μl of cell suspension to EP tube, add 5 ug DNA, flip and place it on ice for 10 min; Pipet the 200 μl cell suspension into 2 mm electroporation cuvette; Place the cuvette into shockpod, close the lid, and press the PULSE button; Set parameters: Expentional decay pulse: VOL=200 V; CAP=900 uF, RES=1000Ω; Transfer all cells from electroporation cuvette to 6 well plate, adding 2 ml DMEMF12 containing 5 ng/ml IL3, 24 h later, replace the medium with DMEM F12 containing 2 μg/ml blasticidin S and 5 ng/ml IL3, maintain for 3 days; change the medium with DMEM F12 containing 2 ug/ml blasticidin S and 2.5 ng/ml IL3, maintain 3 days; change the medium with DMEM F12 containing 2 ug/Ml blasticidin S, maintain to culture.
MTT Cell proliferation assay: 5×10^3 per well cell with 100 μl medium was seeded in 96-well plate; 24 hours later, 100 μl fresh medium with various concentration of compounds; After the cells were treated by compounds for 72 hours, add 20 μl MTT (5 mg/ml) into each wells; The plate is incubated at 37° C. for 4 hours; Centrifuge the plate at 800 g for 10 mins, Aspirated the medium, add 150 μl DMSO into each well. Shake plates gently for 10 mins, Measure the absorbance at 570 nm on plate reader; IR=(WC−WT)/WC.

The target of assay [2] is ALK kinase (Homo sapiens, UniProt Q9UM73). Put plainly: ALK kinase assay. The class given is biochemical. The protocol:
An in vitro assay which determines the ability of a test compound to inhibit ALK kinase. a) kinase-tagged T7 phage strains were prepared in an E. coli host derived from the BL21 strain. E. coli were grown to log-phase and infected with T7 phage and incubated with shaking at 32° C. until lysis. The lysates were centrifuged and filtered to remove cell debris. The remaining kinases were produced in HEK-293 cells and subsequently tagged with DNA for qPCR detection. […] The liganded beads were blocked with excess biotin and washed with blocking buffer (SeaBlock (Pierce), 1% BSA, 0.05% Tween 20, 1 mM DTT) to remove unbound ligand and to reduce non-specific binding. […] All reactions were performed in polystyrene 96-well plates in a final volume of 0.135 ml. […] The kinase concentration in the eluates was measured by qPCR. […]
b) An alternative method to conduct the kinase assay with the following condition and procedure: Reagent: Base Reaction buffer; 20 mM Hepes (pH 7.5), 10 mM MgCl2, 1 mM EGTA, 0.02% Brij35, 0.02 mg/ml BSA, 0.1 mM Na3VO4, 2 mM DTT, 1% DMSO.
1. Preparing indicated substrate in freshly prepared Base Reaction Buffer
2. Delivering any required cofactors to the substrate solution above
3. Delivering indicated kinase into the substrate solution and gently mix
4. Delivering compounds in DMSO into the kinase reaction mixture
5. Delivering ^33P-ATP (specific activity 0.01 μCi/μl final) into the reaction mixture to initiate the reaction.
6. Incubating kinase reaction for 120 min. at room temperature
7. Reactions are spotted onto P81 ion exchange paper (Whatman #3698-915)
8. Washing filters extensively in 0.75% Phosphoric acid. […]
c) An alternative method to conduct the kinase assay with the following condition and procedure: The assay was performed using Kinase-Glo Plus luminescence kinase assay kit (Promega). It measures kinase activity by quantitating the amount of ATP remaining in solution following a kinase reaction. The luminescent signal from the assay is correlated with the amount of ATP present and is inversely correlated with the amount of kinase activity.
The compound were diluted in 10% DMSO and 5 μl of the dilution was added to a 50 μl reaction so that the final concentration of DMSO is 1% in all of reactions. All of the enzymatic reactions were conducted at 30° C. for 40 minutes. The 50 μl reaction mixture contains 40 mM Tris, pH 7.4, 10 mM MgCl2, 0.1 mg/ml BSA, 1 mM DTT, 0.2 mg/ml substrate peptide, 10 μM ATP and ALK (Table 2.3.1). After the enzymatic reaction, 50 μl of Kinase-Glo Plus Luminescence kinase assay solution (Promega) was added to each reaction and incubate the plate for 5 minutes at room temperature. Luminescence signal was measured using a BioTek Synergy 2 microplate reader. ALK activity assays were performed in duplicate at each concentration. The luminescence data were analyzed using the computer software, Graphpad Prism. The difference between luminescence intensities in the absence of ALK (Lut) and in the presence of ALK (Luc) was defined as 100% activity (Lut−Luc). Using luminescence signal (Lu) in the presence of the compound, % activity was calculated as % activity={(Lut−Lu)/(Lut−Luc)}×100%, where Lu=the luminescence intensity in the presence of the compound (all percent activities below zero were shown zero in the table). The values of % activity versus a series of compound concentrations were then plotted using non-linear regression analysis of Sigmoidal dose-response curve generated with the equation Y=B+(T−B)/1+10^((Log EC50−X)×Hill Slope), where Y=percent activity, B=minimum percent activity, T=maximum percent activity, X=logarithm of compound and Hill Slope=slope factor or Hill coefficient. The IC50 value was determined by the concentration causing a half-maximal percent activity.

Here are results for 1 compound from US20140350050A1, “PYRIDINE COMPOUNDS AS INHIBITORS OF KINASE” (TELIGENE LTD., priority 2011, published 2014).

pIC50: −log10 of the molar value. Where two headings read alike, the source gives them in different places.

ALK kinase, sequence (Q9UM73 19-1620): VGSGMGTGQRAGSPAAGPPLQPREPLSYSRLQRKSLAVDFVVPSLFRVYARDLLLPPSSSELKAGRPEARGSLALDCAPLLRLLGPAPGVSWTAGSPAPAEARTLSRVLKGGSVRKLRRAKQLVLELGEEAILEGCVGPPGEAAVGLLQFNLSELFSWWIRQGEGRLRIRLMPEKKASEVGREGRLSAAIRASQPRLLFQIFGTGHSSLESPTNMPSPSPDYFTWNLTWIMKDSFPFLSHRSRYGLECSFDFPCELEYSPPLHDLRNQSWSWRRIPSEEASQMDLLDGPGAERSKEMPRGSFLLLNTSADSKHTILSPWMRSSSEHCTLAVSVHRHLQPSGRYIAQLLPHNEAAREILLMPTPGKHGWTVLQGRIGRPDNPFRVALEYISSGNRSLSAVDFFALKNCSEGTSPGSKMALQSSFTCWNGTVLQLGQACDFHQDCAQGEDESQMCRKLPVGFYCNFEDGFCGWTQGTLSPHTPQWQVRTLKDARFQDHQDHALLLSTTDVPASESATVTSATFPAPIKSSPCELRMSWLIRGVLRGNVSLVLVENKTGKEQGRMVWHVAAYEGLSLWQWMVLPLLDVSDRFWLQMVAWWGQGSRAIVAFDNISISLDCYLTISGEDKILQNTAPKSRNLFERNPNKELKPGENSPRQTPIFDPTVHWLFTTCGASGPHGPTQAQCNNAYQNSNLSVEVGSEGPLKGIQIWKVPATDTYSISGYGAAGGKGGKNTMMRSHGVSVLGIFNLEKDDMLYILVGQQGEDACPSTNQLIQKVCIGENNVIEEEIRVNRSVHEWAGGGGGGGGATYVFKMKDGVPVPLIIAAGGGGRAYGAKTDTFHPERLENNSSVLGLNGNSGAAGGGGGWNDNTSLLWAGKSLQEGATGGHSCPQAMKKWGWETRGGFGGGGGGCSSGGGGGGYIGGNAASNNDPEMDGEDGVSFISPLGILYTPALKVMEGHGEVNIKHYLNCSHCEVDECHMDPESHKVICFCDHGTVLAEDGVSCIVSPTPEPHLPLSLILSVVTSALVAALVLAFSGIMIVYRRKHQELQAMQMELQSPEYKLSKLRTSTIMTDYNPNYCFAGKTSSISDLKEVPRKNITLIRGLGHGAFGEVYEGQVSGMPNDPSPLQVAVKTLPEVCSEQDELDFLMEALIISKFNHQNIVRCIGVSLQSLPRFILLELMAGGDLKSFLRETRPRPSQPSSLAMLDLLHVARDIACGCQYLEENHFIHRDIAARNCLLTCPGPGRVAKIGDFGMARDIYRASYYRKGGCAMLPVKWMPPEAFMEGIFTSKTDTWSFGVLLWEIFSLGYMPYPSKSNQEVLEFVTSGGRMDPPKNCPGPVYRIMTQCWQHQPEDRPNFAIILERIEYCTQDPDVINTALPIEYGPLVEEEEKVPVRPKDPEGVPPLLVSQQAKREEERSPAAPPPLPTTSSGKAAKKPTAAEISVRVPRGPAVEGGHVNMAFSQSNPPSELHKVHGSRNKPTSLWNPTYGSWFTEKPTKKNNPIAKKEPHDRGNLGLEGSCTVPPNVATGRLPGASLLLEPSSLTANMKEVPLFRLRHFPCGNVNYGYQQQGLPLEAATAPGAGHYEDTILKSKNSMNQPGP
T1 sequence (Q9UM73 whole entry, change not shown, the tested form may be a part): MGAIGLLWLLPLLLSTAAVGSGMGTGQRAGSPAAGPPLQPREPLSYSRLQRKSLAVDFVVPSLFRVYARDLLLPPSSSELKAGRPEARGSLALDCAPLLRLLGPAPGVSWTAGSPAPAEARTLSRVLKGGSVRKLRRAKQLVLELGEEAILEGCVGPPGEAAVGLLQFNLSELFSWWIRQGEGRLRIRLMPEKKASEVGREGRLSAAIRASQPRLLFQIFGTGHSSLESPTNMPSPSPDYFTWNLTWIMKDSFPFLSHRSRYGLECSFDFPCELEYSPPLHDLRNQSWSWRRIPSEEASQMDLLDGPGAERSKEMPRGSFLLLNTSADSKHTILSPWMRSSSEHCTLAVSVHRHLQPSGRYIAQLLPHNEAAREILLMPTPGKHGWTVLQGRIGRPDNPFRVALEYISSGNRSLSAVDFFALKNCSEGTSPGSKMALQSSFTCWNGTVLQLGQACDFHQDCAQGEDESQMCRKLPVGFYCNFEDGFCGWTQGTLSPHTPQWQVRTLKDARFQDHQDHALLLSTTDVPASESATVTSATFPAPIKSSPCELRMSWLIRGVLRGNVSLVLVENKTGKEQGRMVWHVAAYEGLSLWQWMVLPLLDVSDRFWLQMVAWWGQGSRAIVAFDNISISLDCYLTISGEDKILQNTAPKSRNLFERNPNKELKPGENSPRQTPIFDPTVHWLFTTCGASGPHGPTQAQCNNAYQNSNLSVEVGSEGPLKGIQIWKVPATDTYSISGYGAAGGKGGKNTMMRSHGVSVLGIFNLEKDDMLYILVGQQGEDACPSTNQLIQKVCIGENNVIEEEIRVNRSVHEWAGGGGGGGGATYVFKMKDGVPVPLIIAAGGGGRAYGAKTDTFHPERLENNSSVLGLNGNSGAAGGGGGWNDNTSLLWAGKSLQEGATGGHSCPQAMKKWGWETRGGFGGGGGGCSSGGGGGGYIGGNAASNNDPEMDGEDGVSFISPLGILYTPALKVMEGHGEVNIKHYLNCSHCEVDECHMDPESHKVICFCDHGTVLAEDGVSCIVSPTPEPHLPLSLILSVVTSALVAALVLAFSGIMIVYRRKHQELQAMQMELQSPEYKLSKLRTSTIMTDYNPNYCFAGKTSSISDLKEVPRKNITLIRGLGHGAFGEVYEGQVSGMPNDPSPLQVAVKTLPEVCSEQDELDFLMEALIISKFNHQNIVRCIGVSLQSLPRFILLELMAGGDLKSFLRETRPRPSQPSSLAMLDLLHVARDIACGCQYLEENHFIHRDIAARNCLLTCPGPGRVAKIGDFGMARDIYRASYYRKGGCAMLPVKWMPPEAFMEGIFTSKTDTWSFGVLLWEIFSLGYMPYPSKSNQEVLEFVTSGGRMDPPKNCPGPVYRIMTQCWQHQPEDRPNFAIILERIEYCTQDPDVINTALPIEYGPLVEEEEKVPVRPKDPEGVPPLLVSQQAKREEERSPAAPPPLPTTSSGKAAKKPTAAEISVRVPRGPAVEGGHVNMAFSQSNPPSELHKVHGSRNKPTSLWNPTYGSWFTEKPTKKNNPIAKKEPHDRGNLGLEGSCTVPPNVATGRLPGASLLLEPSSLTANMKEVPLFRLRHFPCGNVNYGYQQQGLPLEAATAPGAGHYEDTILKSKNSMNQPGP

For the compound `[2H]C([2H])([2H])C([2H])([2H])N1CCC(n2cc(-c3cnc(N)c(O[C@H](C)c4c(Cl)ccc(F)c4Cl)c3)cn2)CC1` [Compound 22, (R)-3-(1-(2,6-dichloro-3-fluorophenyl)ethoxy)-5-(1-(1-d5-ethylpiperidin-4-yl)-1H-pyrazol-4-yl)pyridin-2-amine], the GI50 in assay [1] was at most 100 nM. The pIC50 in assay [2] (ALK kinase assay, read-out: ALK (IC50 grading)) is at least 7.00; in assay [2] (read-out: IC50 in the ALK kinase assay), 8.87.

By pIC50 is commonly meant −log10 of the IC50, conventionally taken in molar units.
